Legend:
HCT116(p53−/−) cells = experiment: MTT assay, IC50 of HU, HCT116(p53−/−); type: cell-based, human; details: HU combined with NSC49L, 72 h
Protocol: (§1) The survival of cells was determined by MTT (3-(4,5-Dimethylthiazol-2yl-)-2,5-diphenyl tetrazolium bromide) assay (ATCC, Manassas, VA, USA). In principle, the viable cell number is directly proportional to the purple formazan color of the reduced MTT dye, which can be quantitatively measured by spectrophotometry. Briefly, 1,500 cells were plated in quadruplets in 96-well flat-bottom tissue culture plates. After treatment with compounds for certain periods as described in respective figure legends, 10 μl of MTT reagent was added to each well and incubated at 37°C for 4 h to allow the formation of purple color crystals of formazan. In total, 100 μl of detergent solution was added to each well, and the reaction mixture was incubated in dark for 2–4 h at room temperature. The developed color density was then measured spectrophotometrically at 570 nm using the POLARstar Omega micro-plate reader (BMG Labtech, Inc., Cary, NC, USA).

HCT116(p53+/+) cells = experiment: MTT assay, IC50 of HU, HCT116(p53+/+); type: cell-based, human; details: HU combined with NSC49L, 72 h
Protocol: as §1

[1] = test system: human-derived CRC stem cell tumors; experiment: Patient-derived tumor xenograft (PDTX) of CRC stem cell tumors; type: in vivo, female SCID mice; details: 50 mg/kg body weight NSC49L every day, 30 days
Protocol: With the pharmacokinetics analysis and MTD data in hand, we determined the efficacy of NSC49L and 5-FU alone and in combination for the growth of human-derived CRC stem cell tumors in vivo. CRC stem cells were isolated and characterized from the freshly resected human CRC tumor. One thousands of these CRC stem cells were injected subcutaneously into the right flank of the four 5-week old female SCID mice. After 20 days the first generation tumors (F0) of approximately 2,000 mm^3 in size were harvested. They were divided into four equal pieces and implanted under the skin of the female SCID mice for the growth of second generation tumors (F1) for testing the drug efficacy studies. We divided the F1 tumor bearing mice into four groups and treated them every day subcutaneously with drugs as follows: i) PBS control, (ii) 50 mg/kg body weight NSC49L, (iii) 20 mg/kg body weight 5-FU, and iv) 50 and 20 mg/kg body weight NSC49L and 5-FU, respectively, for 30 days. The treatment with drugs began after 10 days of tumor growth. The body weight and tumor volumes were recorded twice a weak. The experiment was terminated on the 32nd day.

[2] = test system: FOLFOX-resistant-HT29 cells; experiment: Cell survival (MTT assay), FOLFOX-resistant-HT29; type: cell-based; details: Homo sapiens, FOLFOX-resistant HT-29, 48 h
Protocol: (§2) In some experiments, 5-FU, leucovorin and oxaliplatin (FOLFOX)-resistant-HCT-116 and FOLFOX-resistant-HT29 cells were used. These cells were obtained from Dr. Adhip P. Majumdar (John D. Dingell VA Medical Center, Detroit, MI). These cells were generated by exposure to clinically relevant doses and schedules. The exposing schedule was for 12 cycles; each cycle lasted for one week. Briefly, the cells were first exposed to FOLFOX (25 μM 5-FU and 0.625 μM oxaliplatin) for 72 hours. The surviving cells were then cultured in normal medium without the drugs for 4 to 5 days. This cycle was repeated 12 times. The surviving cells were then split and exposed to higher doses of FOLFOX (50 μM 5-FU + 1.25 μM oxaliplatin or 100 μM 5-FU + 2.5 μM oxaliplatin) for 2 to 3 days per week for approximately 4 weeks. […]
(§3) The survival of cells was determined by MTT (3-(4,5-Dimethylthiazol-2yl-)-2,5-diphenyl tetrazolium bromide) assay (ATCC, Manassas, VA, USA). In principle, the viable cell number is directly proportional to the purple formazan color of the reduced MTT dye, which can be quantitatively measured by spectrophotometry. […] The developed color density was then measured spectrophotometrically at 570 nm using the POLARstar Omega micro-plate reader (BMG Labtech, Inc., Cary, NC, USA).

CA2 CRC stem cell line = experiment: Spheroid (sphere) formation assay; type: cell-based; details: Homo sapiens; drug alone, seventh day
Protocol: Live CA2 cells (100) were seeded in 384-well ultra-low attachment plates. Next, day cells were treated with different concentrations of NSC49L and 5-FU either alone or in combination. Cells were incubated for 7 days and the number of spheroids were counted in control and treated groups under an Olympus inverted microscope with a 10× magnification.

[3] = test system: γH2AX(S139P)-foci in HCoEpiC cells; experiment: γH2AX(S139P)-foci IHC staining, HCoEpiC; type: cell-based, human; details: NSC49L alone or in combination with 5-FU, 24 h
[4] = test system: HCoEpiC normal colonic epithelial cell line; experiment: Cell survival (MTT assay), HCoEpiC; type: cell-based; details: Homo sapiens, drug alone, 48 h
Protocol: as §1

SW480 cells = experiment: Cell survival (MTT assay), SW480; type: cell-based; details: Homo sapiens, drug alone, 48 h
Protocol: as §1

[5] = Maximum tolerated dose and pathological analysis of organs; type: in vivo, male SCID mice
Protocol: We have determined the MTD of NSC49L from male homozygous CB17 scid/scid (SCID) mice obtained from Tacomic Farms (Germantown, NY, USA). The mice were treated subcutaneously at 25, 50, and 75 mg/kg body weight for 5 consecutive days followed by observation for an additional 7 days. Every day body weight was recorded and behavioral changes were monitored in the treated versus control animals. After the 7th day animals were sacrificed and the organs from the mice treated at 75 mg/kg body weight were processed for pathological examination. Different organs were fixed in 10% buffered formalin, then sectioned and processed into paraffin blocks. Tissue sections were cut 4–5 μm thick and stained with hematoxylin and eosin. Histologic differences between control (A) and treated (B) mice were recorded and photomicrographs were taken with Olympus, BX41 microscope with attached camera.

[6] = test system: Chk1 phosphorylation in HT29 cells; experiment: Western blot of total and phosphorylated Chk1, HT29; type: cell-based, human
Protocol: The levels of various proteins were determined by Western blot analysis with our previously described procedure. The antibodies for phospho-Chk1(Ser317), phospho-Chk1(Ser317), phospho-Chk1(Ser319), phospho-Chk1(Ser345), Chk1, and GAPDH were purchased from Cell Signaling Technology (Danvers, MA, USA).

[7] = test system: γH2AX(S139P)-foci in CA2 cells; experiment: γH2AX(S139P)-foci IHC staining, CA2; type: cell-based, human; details: 24 h
LS174T cells = experiment: Cell survival (MTT assay), LS174T; type: cell-based; details: Homo sapiens, drug alone, 48 h
Protocol: as §1

[8] = test system: FOLFOX-resistant-HCT116 cells; experiment: Cell survival (MTT assay), FOLFOX-resistant-HCT116; type: cell-based; details: Homo sapiens, FOLFOX-resistant HCT-116, 48 h
Protocol: as §2, §3

RKO cells = experiment: Cell survival (MTT assay), RKO; type: cell-based; details: Homo sapiens, drug alone, 48 h
Protocol: as §1

[9] = test system: γH2AX(S139P)-foci in HCT-116 cells; experiment: γH2AX(S139P)-foci IHC staining, HCT-116; type: cell-based, human; details: 24 h
[10] = 2 mM HU 24 h, then NSC49L 5, 10, 20 μM additional 8 h
[11] = NSC49L in combination with 5-FU

ClC/C=C/C[N+]12CN3CN(CN(C3)C1)C2 [NSC49L]
IC50 of HU (HCT116(p53−/−) cells): further decreased
IC50 of HU (HCT116(p53+/+) cells): further decreased
Growth of CRC stem cell tumors [1]: significant growth inhibition
IC50 [2]: 3.1 µM
IC50 (CA2 CRC stem cell line): 4.8 µM
replication stress-mediated DNA damage (γH2AX(S139P)-foci) [3]: no effect
IC50 [4]: 31.9 ± 0.9 µM
IC50 (SW480 cells): 4.4 ± 0.2 µM
Histologic sections of organs ([5]; 75 mg/kg body weight, bone marrow, brain, kidney, liver, lung, pancreas): no significant differences between control and treated mice
Body weight, behavior, pathological abnormalities ([5]; 25, 50 and 75 mg/kg body weight, 5 consecutive days, 7 days observation, treated versus control): no change in body weight, behavior, or pathological abnormalities
Chk1(S296P) levels [6, 10]: increased at low concentrations of NSC49L (5 μM), but decreased at 10 and 20 μM concentrations
Chk1(S317P) level [6, 10]: decreased in a dose-dependent manner
Chk1(S345P) level ([6]; 2 mM HU 24 h, then NSC49L additional 8 h): increased above the HU treatment level in a dose-dependent manner
Chk1 phosphorylation ([6]; NSC49L alone, 8 h): did not show any significant effect
γH2AX(S139P)-foci ([7]; NSC49L alone): increased
γH2AX(S139P)-foci [7, 11]: further increased
IC50 (LS174T cells): 4.6 ± 0.8 µM
IC50 [8]: 5.4 µM
IC50 (RKO cells): 4.9 ± 0.4 µM
γH2AX(S139P)-foci ([9]; NSC49L alone): increased
γH2AX(S139P)-foci [9, 11]: further increased
